In the Deep4Chem optical property database:

Assay: solvent given as SMILES

## CN(C)c1ccc2c(c1)-c1ccccc1C2=O
In C1CCCCC1
  fluorescence lifetime: 6.1 ns
In CC#N
  fluorescence lifetime: 4.8 ns
In c1ccccc1
  fluorescence lifetime: 11 ns

## CC(C)[Si]1(C(C)C)c2cc(C#N)ccc2-c2ccc(N(C)C)cc21
In C1CCCCC1
  fluorescence lifetime: 2.6 ns
In ClCCl
  fluorescence lifetime: 2.6 ns

## N#Cc1ccc(-n2c(-c3ccc(-c4ccc(-c5nc6c7ccccc7c7ccccc7c6n5-c5ccc(C#N)c6ccccc56)cc4)cc3)nc3c4ccccc4c4ccccc4c32)c2ccccc12
In ClCCl
  fluorescence lifetime: 1.92 ns

## COc1c(-c2ccc(N(C)C)cc2)oc2ccccc2c1=O
In C1CCCCC1
  fluorescence lifetime: 0.67 ns
In C1CCOC1
  fluorescence lifetime: 2.05 ns
In CC#N
  fluorescence lifetime: 2.71 ns
In CCOC(C)=O
  fluorescence lifetime: 1.67 ns
In CCOCC
  fluorescence lifetime: 0.88 ns

## O=C1C(=c2c(=O)c3c4ccccc4cc4cc5ccccc5c2c43)C(=O)c2ccccc21
In C1CCOC1
  fluorescence lifetime: 10.7 ns
In CC#N
  fluorescence lifetime: 6.9 ns
In CCCCCC
  fluorescence lifetime: 12.4 ns
In Cc1ccccc1
  fluorescence lifetime: 11.3 ns
In ClCCl
  fluorescence lifetime: 8.7 ns

## Cc1ccc(N(CC(=O)[O-])CC(=O)[O-])cc1OCCOc1cc(-c2cc3ccc(C(=O)[O-])cc3[nH]2)ccc1N(CC(=O)[O-])CC(=O)[O-]
In O
  fluorescence lifetime: 1.4 ns

## Cc1cccc2ccccc12
In C1CCCCC1
  fluorescence lifetime: 140 ns

## CC1=C(I)C(C)=[N+]2C1=C(c1c(-c3ccccn3)nc3ccccn13)c1c(C)c(I)c(C)n1[B-]2(F)F
In ClCCl
  fluorescence lifetime: 0.4 ns

## CC1=CC(C)=[N+]2C1=C(c1ccc(I)cc1)c1c(C)cc(C)n1[B-]2(Oc1ccc(Cl)cc1)Oc1ccc(Cl)cc1
In ClC(Cl)Cl
  fluorescence lifetime: 0.37 ns

## Cc1cc(C)c(C2=[N+]3C(=Cc4c(C)cc(C)n4[B-]3(F)F)c3ccccc32)[nH]1
In C1CCOC1
  fluorescence lifetime: 3.75 ns
In CC#N
  fluorescence lifetime: 4.34 ns
In CCCCCC
  fluorescence lifetime: 7.17 ns
In CO
  fluorescence lifetime: 4.98 ns
In Cc1ccccc1
  fluorescence lifetime: 6.14 ns
In ClCCl
  fluorescence lifetime: 6.4 ns

## C#CCNC1=C2C(C)=CC(C)=[N+]2[B-](F)(F)n2c(C)cc(C)c21
In C1CCCCC1
  fluorescence lifetime: 1.78 ns
In CC(C)=O
  fluorescence lifetime: 0.61 ns
In CCOC(C)=O
  fluorescence lifetime: 0.78 ns
In CO
  fluorescence lifetime: 0.518 ns
In OCC(F)(F)F
  fluorescence lifetime: 0.76 ns

## O=Cc1cc2c(cc3ccc4cccc5ccc2c3c45)[nH]1
In CCOC(C)=O
  fluorescence lifetime: 2.55 ns

## CCOC(=O)c1ccccc1-c1c2ccc(=[N+](CC)CC)cc-2oc2cc(N(CC)CC)ccc12
In CC#N
  fluorescence lifetime: 1.69 ns
In CCO
  fluorescence lifetime: 2.94 ns
In CN(C)C=O
  fluorescence lifetime: 2.16 ns
In O
  fluorescence lifetime: 1.74 ns

## Fc1ccc(-[c+]2c3ccccc3oc3ccccc32)cc1
In CC#N
  fluorescence lifetime: 18.8 ns

## COC(=O)[C@@]12N=N[C@@H](C3C[C@H]31)[C@@H]1C[C@@H]12 (some centres undefined)
In CC#N
  fluorescence lifetime: 9.2 ns

## O=S(=O)(/N=c1\oc2cccc3c4c(-c5ccccc5)oc5cccc(c(c1-c1ccccc1)c23)c54)C(F)(F)F
In CCCCCC
  fluorescence lifetime: 3.8 ns
In CO
  fluorescence lifetime: 7.5 ns
In CS(C)=O
  fluorescence lifetime: 6.6 ns
In ClC(Cl)Cl
  fluorescence lifetime: 5.6 ns
In ClCCl
  fluorescence lifetime: 6.2 ns
In O
  fluorescence lifetime: 2.3 ns

## O=C1c2ccccc2-c2ccc(Nc3nc(Cl)nc(Cl)n3)c3cccc1c23
In CC#N
  fluorescence lifetime: 6.6 ns
In CC(C)=O
  fluorescence lifetime: 4.5 ns
In CC(C)O
  fluorescence lifetime: 7.7 ns
In CCCCOCCCC
  fluorescence lifetime: 0.5 ns
In CCOC(C)=O
  fluorescence lifetime: 1.6 ns
In CCOCC
  fluorescence lifetime: 0.7 ns
In CO
  fluorescence lifetime: 7.6 ns
In Cc1ccccc1
  fluorescence lifetime: 0.9 ns
In Clc1ccccc1
  fluorescence lifetime: 2 ns
In N#Cc1ccccc1
  fluorescence lifetime: 6 ns
In O=C1CCCCC1
  fluorescence lifetime: 3.4 ns

## CC(C)(C)c1ccc(C2=C(c3ccc(N(c4ccccc4)c4ccccc4)cc3)S(=O)(=O)c3c2sc(-c2ccc(N(c4ccccc4)c4ccccc4)cc2)c3-c2ccc(C(C)(C)C)cc2)cc1
In C1CCOC1
  fluorescence lifetime: 3.03 ns

## CN(C)c1ccc(C2=Nc3scc(-c4ccccc4)[n+]3[B-](F)(F)O2)cc1
In C1CCOC1
  fluorescence lifetime: 2.06 ns

## COC(=O)C(NC(=O)OC(C)(C)C)c1ccc2oc(-c3ccc(C#N)cc3)nc2c1 (centres undefined)
In CC1CCCCC1
  fluorescence lifetime: 1.28 ns
In CC#N
  fluorescence lifetime: 1.87 ns
In CO
  fluorescence lifetime: 1.92 ns

## Oc1ccc2cc(C3(O)C4CC5CC(C4)CC3C5)ccc2c1 (centres undefined)
In CC#N
  fluorescence lifetime: 8.14 ns

## COc1ccc(-c2c3ccccc3c(C#Cc3ccccc3)c3cc4ccccc4cc23)cc1
In ClCCl
  fluorescence lifetime: 9.7 ns

## c1ccc(Nc2nc(Nc3ccccc3)nc(Nc3ccc4ccc5cccc6ccc3c4c56)n2)cc1
In CCCCCCC
  fluorescence lifetime: 4.3 ns

## CCCCCn1c2ccc(S(=O)(=O)O)cc2c(=O)c2cc(S(=O)(=O)O)ccc21
In CS(C)=O
  fluorescence lifetime: 10.2 ns
In O
  fluorescence lifetime: 15.6 ns

## CN(C)c1cccc2c1-c1ccccc1C2=O
In C1CCCCC1
  fluorescence lifetime: 8 ns
In CC#N
  fluorescence lifetime: 4.2 ns
In c1ccccc1
  fluorescence lifetime: 10 ns

## N#Cc1cc(-n2c3ccccc3c3ncccc32)c(-n2c3ccccc3c3ncccc32)cc1C#N
In c1cc(-n2c3ccccc3c3ccccc32)cc(-n2c3ccccc3c3ccccc32)c1
  fluorescence lifetime: 70 ns

## CC1(C)c2cc(C#N)ccc2-c2ccc(N3c4ccccc4Oc4ccccc43)cc21
In C1CCCCC1
  fluorescence lifetime: 1.89 ns
In C1CCOC1
  fluorescence lifetime: 9.74 ns
In CC#N
  fluorescence lifetime: 1.23 ns
In Cc1ccccc1
  fluorescence lifetime: 4.94 ns
In ClC(Cl)Cl
  fluorescence lifetime: 11.6 ns

## COc1cc(N2CCOCCOCCN(c3cc(OC)c(NC(=O)c4ccc(-c5c6cc(Cl)c(=O)cc-6oc6cc([O-])c(Cl)cc56)c(C(=O)[O-])c4)cc3OC)CCOCC2)c(OC)cc1NC(=O)c1ccc(-c2c3cc(Cl)c(=O)cc-3oc3cc([O-])c(Cl)cc23)c(C(=O)[O-])c1
In O
  fluorescence lifetime: 1.13 ns

## CN(C)c1ccc2nc(/C=C/c3ccccc3)c(=O)oc2c1
In C1CCCCC1
  fluorescence lifetime: 2.82 ns
In C1COCCO1
  fluorescence lifetime: 3.52 ns
In CC#N
  fluorescence lifetime: 3.95 ns
In CC(C)=O
  fluorescence lifetime: 3.82 ns
In CCCCCCC
  fluorescence lifetime: 2.8 ns
In CCO
  fluorescence lifetime: 3.77 ns
In CCOC(C)=O
  fluorescence lifetime: 3.58 ns
In CN(C)C=O
  fluorescence lifetime: 3.65 ns
In CS(C)=O
  fluorescence lifetime: 3.58 ns
In Cc1ccccc1
  fluorescence lifetime: 3 ns
In ClC(Cl)Cl
  fluorescence lifetime: 3.74 ns
In ClCCl
  fluorescence lifetime: 3.83 ns

## C[Si](C)(C)c1cccc2c(C#N)cccc12
In C1CCCCC1
  fluorescence lifetime: 8 ns

## CCC1=C(C)C2C(c3ccc(-c4ccc(-c5nc6c7ccccc7c7ccccc7c6n5-c5ccc(C(C)(C)C)cc5)cc4)cc3)c3c(C)c(CC)c(C)n3[B-](F)(F)[N+]2=C1C (centres undefined)
In ClC(Cl)Cl
  fluorescence lifetime: 17 ns

## CC(=O)OCCOCCN1C(=O)c2cc(NCCOCCO)c3c4c(cc(NCCOCCO)c(c24)C1=O)C(=O)N(CCOCCOC(C)=O)C3=O
In CO
  fluorescence lifetime: 8 ns
In ClC(Cl)Cl
  fluorescence lifetime: 9.6 ns
In O
  fluorescence lifetime: 4.4 ns

## CCNc1cc2oc(=O)cc(C(F)(F)F)c2cc1C
In CC#N
  fluorescence lifetime: 7.7 ns

## CC1=C2C=CC(C)=[N+]2[B-](F)(F)n2cccc21
In CCCCCC
  fluorescence lifetime: 6.61 ns
In CO
  fluorescence lifetime: 6.76 ns
In ClCCl
  fluorescence lifetime: 6.23 ns

## c1ccc(-c2c3ccccc3c(-c3cncnc3)c3ccccc23)cc1
In CCO
  fluorescence lifetime: 3.5 ns
In ClCCl
  fluorescence lifetime: 6.9 ns

## c1cc2c3c(c1)OCCCCCCCOc1cccc(c1-c1c4ccccc4c-3c3ccccc13)OCCCCCCCO2
In C1CCCCC1
  fluorescence lifetime: 8.18 ns

## Cc1cc(C)c(C2=C3C=CC=[N+]3[B-]3(c4ccc5ccc6cccc7ccc4c5c67)Oc4cc(O)cc5c6ccc(C)cc6c6cc2n3c6c45)c(C)c1 (centres undefined)
In ClC(Cl)Cl
  fluorescence lifetime: 3.5 ns

## CC1=C(Br)C(C)=[N+]2C1=C(c1c(-c3ccccn3)nc3ccccn13)c1c(C)c(Br)c(C)n1[B-]2(F)F
In ClCCl
  fluorescence lifetime: 0.9 ns

## c1cc2c3c(c1)-c1cccc4cccc(c14)B3c1cccc3cccc-2c13
In Cc1ccccc1
  fluorescence lifetime: 6.31 ns

## CCC12C(=C3C(=C4c5ccc(-c6ccc(CO)cc6)cc5S(=O)(=O)C41CC)C(F)(F)C(F)(F)C3(F)F)c1ccc(-c3ccc(CO)cc3)cc1S2(=O)=O (centres undefined)
In C1COCCO1
  fluorescence lifetime: 2.9 ns

## CN(C)c1ccc(C(=O)c2ccccc2)cc1
In C1CCCCC1
  fluorescence lifetime: 0.1 ns
In CC#N
  fluorescence lifetime: 0.16 ns
In CO
  fluorescence lifetime: 0.0052 ns
In CS(C)=O
  fluorescence lifetime: 0.1 ns
In c1ccccc1
  fluorescence lifetime: 0.9 ns

## Cc1ccc(/C2=c3\cc/c(o3)=C(\c3ccc(C)cc3)c3ccc([nH]3)-c3ccc4n3[P-](=O)(=O)[N+]3=C(C=CC3=C4c3ccc[nH]3)c3ccc2[nH]3)cc1
In ClC(Cl)Cl
  fluorescence lifetime: 4 ns
